# Assay results from US20100280024A1, “RENIN INHIBITORS” (priority 2007, published 2010).
# pIC50: −log10 of the molar value. Structures can show the parent of a compound that is named as a salt.
# Experiments:
# [1] = target: T1, Renin (Homo sapiens, UniProt P00797); test: In-vitro renin inhibition assay (modified Cayman renin inhibitor screening assay, fluorescence); format: biochemical; set-up: purchased Cayman 10006270; details: 37° C., 30 mins; for inhibition at 0.1 µM: read-out: Renin inhibition (percent inhibition of renin activity) at 0.1 μM; for inhibition at 1 µM: read-out: Renin inhibition (percent inhibition of renin activity) at 1 μM
# T1 sequence (P00797 67-406): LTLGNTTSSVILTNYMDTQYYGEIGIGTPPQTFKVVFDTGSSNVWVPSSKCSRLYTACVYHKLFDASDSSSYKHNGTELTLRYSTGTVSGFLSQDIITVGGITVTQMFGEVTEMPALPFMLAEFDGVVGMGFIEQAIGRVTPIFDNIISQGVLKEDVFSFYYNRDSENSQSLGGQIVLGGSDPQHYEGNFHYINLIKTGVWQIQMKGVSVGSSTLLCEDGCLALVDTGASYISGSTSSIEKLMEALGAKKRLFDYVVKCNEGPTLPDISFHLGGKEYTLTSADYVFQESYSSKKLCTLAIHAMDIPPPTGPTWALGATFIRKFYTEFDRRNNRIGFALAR
# Description: In-Vitro Renin Inhibition Assay
# The enzymatic in vitro assay was performed in 96 well polypropylene plate (Nunc), using a modified Renin inhibitor screening assay protocol (Cayman, cat no: 10006270). The reaction system comprised assay buffer containing 50 mM Tris-HCL, pH=8.0 & 100 mM sodium chloride, human recombinant renin (1:20 diluted with fixed activity), synthetic renin substrates (9.5 μM) and different concentrations of renin inhibitors in DMSO in a total reaction system of 100 μl. The entire incubation mixture were incubated at 37° C. for 30 mins and the fluorescence was read in kinetic mode using excitation wavelengths of 335-345 nm and emission wavelengths of 485-510 nm. Enzyme inhibition was determined by percent inhibition of renin activity.
# [2] = target: T1, Renin; test: Renin inhibition in human plasma (IC50); format: biochemical; set-up: from tissue; host or cells: human plasma
# From the text: Following table represents measured IC50 values of the selected compounds for its Renin inhibition in human plasma.
inhibition at 0.1 µM ([1]; compound concentration 0.1 μM) [%],inhibition at 1 µM ([1]; compound concentration 1 μM) [%],pIC50 [2],Renin inhibition (percent inhibition of renin activity) at 0.1 μM ([1]; compound concentration 0.1 μM),Renin inhibition (percent inhibition of renin activity) at 1 μM ([1]; compound concentration 1 μM),Structure (SMILES)
92.8,93.9,7.56,–,–,"COCC1CCCN(C(=O)C(CN)Cc2ccc(OCCOc3c(Cl)cc(C)cc3Cl)cc2)C1 (centres unmarked) [Example 26, 2-Aminomethyl-3-{4-[2-(2,6-dichloro-4-methyl-phenoxy)-ethoxy]-phenyl}-1-(3-methoxymethyl-piperidin-1-yl)-propan-1-one hydrochloride]"
100,99.2,9.04,–,–,"Cc1cc(Cl)c(OCCOc2ccc(CC(CN)C(=O)N3CCCc4cc(OC(F)(F)F)ccc43)cc2)c(Cl)c1 (centres unmarked) [Example 27, 3-Amino-2-{4-[2-(2,6-dichloro-4-methyl-phenoxy)-ethoxy]-benzyl}-1-(6-trifluoromethoxy-3,4-dihydro-2H-quinolin-1-yl)-propan-1-one hydrochloride]"
94.1,102,7.54,–,–,"NCC(Cc1ccc(OCCOc2c(Cl)cccc2Cl)cc1)C(=O)N1CCCc2cc(C(F)(F)F)ccc21 (centres unmarked) [Example 31, 3-Amino-2-{4-[2-(2,6-dichloro-phenoxy)-ethoxy]-benzyl}-1-(6-trifluoromethyl-3,4-dihydro-2H-quinolin-1-yl)-propan-1-one hydrochloride]"
–,–,8.11,80.00,88.0,"Cc1cc(Cl)c(OCCOc2ccc(CC(CN)C(=O)N3CCCc4cc(C(F)(F)F)ccc43)cc2)c(Cl)c1.Cl (centres unmarked) [Example 15A, 3-Amino-2-{4-[2-(2,6-dichloro-4-methyl-phenoxy)-ethoxy]-benzyl}-1-(6-trifluoromethyl-3,4-dihydro-2H -quinolin-1-yl)-propan-1-one hydrochloride]"
77,90.7,7.15,–,–,"Cc1cc(Cl)c(OCCOc2ccc(CC(CN)C(=O)N3CCCCC3)cc2)c(Cl)c1 (centres unmarked) [Example 12, 3-Amino-2-{4-[2-(2,6-dichloro-4-methyl-phenoxy)-ethoxy]-benzyl}-1-piperidin-1-yl-propan-1-one]"
100,–,9.08,–,–,"NCC(Cc1ccc(OCCOc2c(Cl)cccc2Cl)cc1)C(=O)N1CCCc2cc(OC(F)(F)F)ccc21 (centres unmarked) [Example 32, 3-Amino-2-{4-[2-(2,6-dichloro-phenoxy)-ethoxy]-benzyl}-1-(6-trifluoromethoxy-3,4-dihydro-2H-quinolin-1-yl)-propan-1-one hydrochloride]"
90.7,93.2,7.59,–,–,"COCCCOc1ccc2c(c1)CCCN2C(=O)C(CN)Cc1ccc(OCCOc2c(Cl)cc(C)cc2Cl)cc1 (centres unmarked) [Example 24, 3-Amino-2-{4-[2-(2,6-dichloro-4-methyl-phenoxy)-ethoxy]-benzyl}-1-[6-(3-methoxy-propoxy)-3,4-dihydro-2H-quinolin-1-yl]-propan-1-one]"
93.1,–,–,–,–,"CC(C)(C)c1ccc2c(c1)CCCN2C(=O)C(CN)Cc1ccc(OCCOc2c(Cl)cccc2Cl)cc1 (centres unmarked) [Example 53, 3-Amino-1-(6-tert-butyl-3,4-dihydro-2H-quinolin-1-yl)-2-{4-[2-(2,6-dichloro-phenoxy)-ethoxy]-benzyl}-propan-1-one hydrochloride]"
80.1,98.6,–,–,–,"Cc1cc(Cl)c(OCCOc2ccc(CC(CN)C(=O)N3CCCc4cc(C(F)(F)F)ccc43)cn2)c(Cl)c1 (centres unmarked) [Example 41, 3-Amino-2-{6-[2-(2,6-dichloro-4-methyl-phenoxy)-ethoxy]-pyridin-3-ylmethyl}-1-(6-trifluoromethyl-3,4-dihydro-2H-quinolin-1-yl)-propan-1-one]"
–,68.5,–,–,–,"Cc1cc(Cl)c(OCCOc2ccc(CC(CN)C(=O)N3CCCc4cccc(F)c43)cc2)c(Cl)c1 (centres unmarked) [Example 11, 3-Amino-2-{4-[2-(2,6-dichloro-4-methyl-phenoxy)-ethoxy]-benzyl}-1-(8-fluoro-3,4-dihydro-2H-quinolin-1-yl)-propan-1-one]"
41.8,87,–,–,–,"Cc1cc(Cl)c(OCCOc2ccc(CC(CN)C(=O)N3CCCc4cc(Cl)cc(Cl)c43)cc2)c(Cl)c1 (centres unmarked) [Example 14, 3-Amino-1-(6,8-dichloro-3,4-dihydro-2H-quinolin-1-yl)-2-{4-[2-(2,6-dichloro-4-methyl-phenoxy)-ethoxy]-benzyl}-propan-1-one]"
18.7,97.1,–,–,–,"Cc1cc(Cl)c(OCCCOc2ccc(CC(CN)C(=O)N3CCCc4ccccc43)cc2)c(Cl)c1 (centres unmarked) [Example 45, 2-Aminomethyl-3-{4-[3-(2,6-dichloro-4-methyl-phenoxy)-propoxy]-phenyl}-1-(3,4-dihydro-2H-quinolin-1-yl)-propan-1-one]"
43.1,–,–,–,–,"COc1ccccc1COCCCOc1ccc(CC(CN)C(=O)N2CCCc3cc(C(F)(F)F)ccc32)cc1 (centres unmarked) [Example 47, 3-Amino-2-{4-[3-(2-methoxy-benzyloxy)-propoxy]-benzyl}-1-(6-trifluoromethyl-3,4-dihydro-2H-quinolin-1-yl)-propan-1-one]"
90.5,97.3,–,–,–,"Cc1cc(Cl)c(OCCOc2ccc(CC(CN)C(=O)N3CCCc4ccccc43)cc2)c(Cl)c1 (centres unmarked) [Example 2, 3-Amino-2-{4-[2-(2,6-dichloro-4-methyl-phenoxy)-ethoxy]-benzyl}-1-(3,4-dihydro-2H-quinolin-1-yl)-propan-1-one]"
–,64.2,–,–,–,"Cc1cc(Cl)c(OCCOc2ccc(CC(CN)C(=O)N3CCCc4ccccc43)cn2)c(Cl)c1 (centres unmarked) [Example 43, 2-Aminomethyl-3-{6-[2-(2,6-dichloro-4-methyl-phenoxy)-ethoxy]-pyridin-3-yl}-1-(3,4-dihydro-2H-quinolin-1-yl)-propan-1-one]"
